Data set [1] deals with T1, human adrenergic α1A receptor (Homo sapiens, UniProt P35348).
T1 construct: expressed in transfected cells; host or cells: CHO-K1 or HEK293 cells
T1 sequence (P35348 1-466): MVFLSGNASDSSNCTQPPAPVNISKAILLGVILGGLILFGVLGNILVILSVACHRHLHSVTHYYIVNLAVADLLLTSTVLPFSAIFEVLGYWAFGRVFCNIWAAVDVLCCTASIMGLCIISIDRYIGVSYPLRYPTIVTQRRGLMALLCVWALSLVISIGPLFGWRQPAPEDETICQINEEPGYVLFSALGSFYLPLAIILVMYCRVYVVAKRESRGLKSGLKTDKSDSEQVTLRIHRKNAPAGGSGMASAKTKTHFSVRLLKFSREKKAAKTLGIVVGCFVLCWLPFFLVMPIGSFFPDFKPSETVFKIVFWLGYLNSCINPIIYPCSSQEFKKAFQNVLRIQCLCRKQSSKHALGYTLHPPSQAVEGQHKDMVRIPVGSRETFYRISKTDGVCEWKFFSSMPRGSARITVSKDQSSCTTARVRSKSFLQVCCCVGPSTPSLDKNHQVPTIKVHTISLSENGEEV
Put plainly: Agonistic/antagonistic activity in G protein dependent pathway (aequorin intracellular calcium luminescence), α1A. In kind it is cell-based. Conditions: for Maximal activity on each receptor (%): α1A: 10 μM adrenaline = 100%; for inhibition at 0.1 µM / inhibition at 1 µM: against 10 μM endogenous ligand, read-out: Inhibitory activity on each receptor (%): α1A. How it is done: (§1) Plasmids encoding each receptor, aequorin and Gα16 were prepared, and the plasmids were transfected into CHO cells (Chinese Hamster Ovary cells) or HEK293 cells (Human Embryonic Kidney 293 cells) to prepare expressing cell lines.
(§2) The agonistic or antagonistic activity of the present compound in the G protein dependent pathway was evaluated on the basis of intracellular calcium levels as follows. CHO-K1 or HEK293 cell lines transfected with D2, D4, α1A, or α2A receptor genes were seeded in a 384-well plate, and incubated in a CO2 incubator at 37° C. for 24 hours, and then a solution of the present compound in DMSO was added into cells preloaded with coelenterazine to measure the change in luminescent signals with a FDSS (Hamamatsu Photonics K.K.). […] The agonistic activity of the present compound was calculated according to the measured luminescent signals, as the maximal activity (Emax) of the present compound. On the other hand, the antagonistic activity of the present compound was calculated according to the luminescent signals in wells with 10 μM of an endogenous ligand alone defined as 100%, as the inhibitory activity of the present compound to an endogenous ligand. EC50 value was calculated as the concentration of the present compound required to achieve a 50% response, and IC50 was calculated as the concentration of the present compound required to achieve a 50% inhibition of the Emax of an endogenous ligand.
On the technique in general: A change in cytosolic calcium serves as a functional read-out for many receptors and channels.

For data set [2], the target named is T2, human adrenergic α2A receptor (Homo sapiens, UniProt P08913).
T2 construct: expressed in transfected cells; host or cells: CHO-K1 or HEK293 cells
T2 sequence (P08913 1-465): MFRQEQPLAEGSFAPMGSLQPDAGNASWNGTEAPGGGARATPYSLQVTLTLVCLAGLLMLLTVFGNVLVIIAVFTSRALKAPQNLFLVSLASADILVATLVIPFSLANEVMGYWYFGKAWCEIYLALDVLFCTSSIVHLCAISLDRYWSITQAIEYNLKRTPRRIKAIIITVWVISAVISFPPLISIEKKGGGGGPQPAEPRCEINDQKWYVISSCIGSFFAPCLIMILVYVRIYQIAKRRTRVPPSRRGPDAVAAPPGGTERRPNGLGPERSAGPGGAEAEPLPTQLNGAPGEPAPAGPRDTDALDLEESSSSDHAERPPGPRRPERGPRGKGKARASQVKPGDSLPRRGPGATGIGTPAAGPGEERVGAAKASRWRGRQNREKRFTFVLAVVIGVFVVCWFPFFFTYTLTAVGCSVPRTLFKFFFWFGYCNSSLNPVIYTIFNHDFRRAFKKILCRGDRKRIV
As to the kind of experiment: Agonistic/antagonistic activity in G protein dependent pathway (aequorin intracellular calcium luminescence), α2A. Type of data set: cell-based. Conditions: for Maximal activity on each receptor (%): α2A: 10 μM adrenaline = 100%; for inhibition at 0.1 µM / inhibition at 1 µM: against 10 μM endogenous ligand, read-out: Inhibitory activity on each receptor (%): α2A. The procedure: as §1, §2

Data set [3] can be described thus: PK study in rat (bioavailability). In kind it is in vivo. The note with it: plasma, oral vs intravenous administration. The procedure:
In this study, the pharmacokinetics of the present compound can be evaluated. Specifically, a 7-week-old SD-type or WKY-type rat received the intravenous administration of a solution of the present compound in saline or the oral administration of a suspension of the present compound in carboxymethylcellulose or methylcellulose. Blood was collected from the rat at each time below.
Intravenous administration: 5 minutes, 15 minutes, 30 minutes, 1 hour, 2 hours, 4 hours, 6 hours, and 24 hours after administration
Oral administration: 15 minutes, 30 minutes, 1 hour, 2 hours, 4 hours, 6 hours, and 24 hours after administration
Plasma was collected from the blood, the levels of the present compound in the plasma were measured by a LC-MS method, and then the pharmacokinetic parameters were calculated on the basis of the level changes.

The nature of data set [4]: Brain penetration study in rat. In kind it is in vivo. The note with it: brain and plasma, unbound brain-to-plasma drug concentration ratio. The procedure:
In this study, the brain penetration of the present compound can be evaluated. Specifically, a 7-week-old SD-type or WKY-type rat received the subcutaneous administration of a solution of the present compound in saline or the oral administration of a suspension of the present compound in methylcellulose. Plasma and brain were collected from the treated rat 0.5 hour, 1 hour or 2 hours after the administration, and then the levels of the present compound in the plasma and the brain were measured by a LC-MS method.
The protein binding ratios of the present compound to the plasma and the brain were measured by an equilibrium dialysis method.
The levels of the present compound in the plasma and the brain as well as the plasma and brain protein binding ratios are applied to the following formula, and thus Kp,uu,brain (Unbound brain-to-plasma drug concentration ratio) can be calculated. Kp,uu,brain=(level of the present compound in the brain×(100−brain protein binding ratio (%))/100)/(level of the present compound in the plasma×(100−plasma protein binding ratio (%))/100)

In data set [5] the target is T3, Human dopamine D4 receptor (Homo sapiens, UniProt P21917).
T3 sequence (P21917 1-419): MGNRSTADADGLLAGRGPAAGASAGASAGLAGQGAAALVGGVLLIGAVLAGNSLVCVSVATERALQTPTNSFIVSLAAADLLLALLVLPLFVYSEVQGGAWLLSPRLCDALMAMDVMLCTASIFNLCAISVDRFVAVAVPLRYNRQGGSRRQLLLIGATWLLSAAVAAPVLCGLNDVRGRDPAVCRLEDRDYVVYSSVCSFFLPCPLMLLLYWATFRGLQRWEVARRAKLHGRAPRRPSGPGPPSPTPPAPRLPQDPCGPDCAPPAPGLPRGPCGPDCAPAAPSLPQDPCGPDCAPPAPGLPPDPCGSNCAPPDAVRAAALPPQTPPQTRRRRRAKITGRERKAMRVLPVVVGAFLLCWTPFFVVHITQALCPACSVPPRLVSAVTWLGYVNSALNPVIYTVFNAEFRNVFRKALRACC
Put plainly: Agonistic/antagonistic activity in G protein dependent pathway (aequorin intracellular calcium luminescence), D4. Type of data set: cell-based. The arrangement: expressed in transfected cells; host or cells: CHO-K1 or HEK293 cells. Conditions: for inhibition at 0.1 µM / inhibition at 1 µM: against 10 μM endogenous ligand, read-out: Inhibitory activity on each receptor (%): D4; for Emax at 0.1 µM / Emax at 1 µM: read-out: Maximal activity on each receptor (%): D4. The procedure:
as §1, §2

Experimental findings from patent US9732065B2, “Cyclic aminomethyl pyrimidine derivative” (Sumitomo Dainippon Pharma Co., Ltd., priority 2013, dated 2017) are described below.

As a reminder, the bioavailability is dose-corrected exposure relative to a reference, in per cent. The low end stands for little systemic uptake, the high end for much systemic uptake. `Cc1ncc(CN2CCC(c3ccccn3)CC2)c(N)n1` [Example 5, 2-Methyl-5-[4-(pyridin-2-yl)piperidin-1-ylmethyl]pyrimidin-4-amine]: in data set [1] (0.1 μM), the “Maximal activity on each receptor (%): α1A” value (“Maximal activity … (%): α1A” for short) came to 2.1% and the inhibition at 0.1 µM amounted to 2.1%. Also, in data set [1] (1 μM), the “Maximal activity … (%): α1A” value is on record as −0.1% and the inhibition at 1 µM was -1.7%. Moreover, in data set [2] (0.1 μM), the “Maximal activity on each receptor (%): α2A” value (from here on “Maximal activity … (%): α2A”) is −0.17% and the inhibition at 0.1 µM is -7%. In addition, in data set [2] (1 μM), the “Maximal activity … (%): α2A” value is given as −0.04% and the inhibition at 1 µM is -1.7%. In data set [3], the bioavailability amounted to 16.8%. Also, the Kp uu in data set [4] was determined as 1.97. Moreover, in data set [5], the inhibition at 0.1 µM turned out to be 78%, the inhibition at 1 µM was determined as 90%, the Emax at 0.1 µM was 59% and the Emax at 1 µM was determined as 74%.
As for `Nc1ncc(CN2CCC(c3cccnc3)CC2)cn1` [Example 37], in data set [1] (0.1 μM), the “Maximal activity … (%): α1A” value amounted to 0.31% and the inhibition at 0.1 µM is -22%. For the same molecule, in data set [1] (1 μM), the “Maximal activity … (%): α1A” value is reported as 0.44% and the inhibition at 1 µM is -14%. Besides, in data set [2] (0.1 μM), the “Maximal activity … (%): α2A” value is on record as −0.17% and the inhibition at 0.1 µM was found to be 7.9%. Further, in data set [2] (1 μM), the “Maximal activity … (%): α2A” value is on record as −0.27% and the inhibition at 1 µM worked out at 0.24%. Further, the bioavailability in data set [3] was 81.7%. Also, in data set [4], the Kp uu stood at 5.51. In addition, in data set [5], the inhibition at 0.1 µM came to 64%, the inhibition at 1 µM worked out at 77%, the Emax at 0.1 µM was 18% and the Emax at 1 µM is 40%.
For the molecule `Cc1ncc(CN2CCC(c3cncc(F)c3)CC2)cn1` [Example 33, 5-[4-(5-Fluoropyridin-3-yl)piperidin-1-ylmethyl]-2-methylpyrimidine], in data set [1] (0.1 μM), the “Maximal activity … (%): α1A” value was found to be 0.4% and the inhibition at 0.1 µM was -34%. In data set [1] (1 μM), the “Maximal activity … (%): α1A” value came to 0.85% and the inhibition at 1 µM is -5.4%. Besides, in data set [2] (0.1 μM), the “Maximal activity … (%): α2A” value is −0.1% and the inhibition at 0.1 µM was 0.91%. Also, in data set [2] (1 μM), the “Maximal activity … (%): α2A” value was −0.12% and the inhibition at 1 µM worked out at 7.8%. Also, the bioavailability in data set [3] was 60.1%. In data set [4], the Kp uu came out at 0.44. In data set [5], the inhibition at 0.1 µM was 76%, the inhibition at 1 µM came out at 98%, the Emax at 0.1 µM is 28% and the Emax at 1 µM was determined as 51%.
